These results are taken from US4957911A, “Benzazecine derivatives for cognitive and memory functions” (Hoffmann-La Roche Inc., priority 1986, dated 1990).

Series [1] is described as follows: Acute toxicity, single oral administration to mice (LD50). Conditions: mouse, in vivo. The source says:
Moreover, the Table contains data for the acute toxicity (LD50 in mg/kg in the case of single oral administration to mice).

Series [2] relates to rats. The series is described as follows: Passive avoidance in Skinner box: reversal of scopolamine-induced blocking of short-time memory. Conditions: scopolamine 0.3 mg/kg i.p. and distilled water p.o. Format: in vivo, rat. From the text: The test apparatus is a "Skinner box" with an electrifiable grid floor (30×40 cm) and a grey plastic platform (15×15×0.8 cm) in the front right corner. Untrained male rats (100-120 g) are placed individually on the platform. As soon as they climb down on to the grid floor they receive a mild electric foot-shock (0.8 mA). The normal reaction of untrained rats is to climb back on to the platform. The foot-shock procedure must be repeated three to five times for each animal, after which the rats have acquired a "passive avoidance response", that is, they no longer attempt to descend from the platform to the grid floor.
Immediately thereafter three groups, each comprising 30 animals, are set up. The first group receives an injection (i.p.) of 0.3 mg/kg of scopolamine as well as distilled water (2 ml/kg p.o.). The second group receives an injection (i.p.) of 0.3 mg/kg of scopolamine and an oral dosage of the test substance. The third group receives only distilled water (p.o.).
Two hours later, each rat is placed once on the platform in the "Skinner box". […] The statistical significance of the difference between the results obtained in the first and in the second groups is determined by means of the Chi-Square test.
70-75% of the animals treated only with distilled water (p.o.) still remember 2-4 hours after learning the "passive avoidance response" that they should remain on the platform. […]

Some results are limits rather than exact numbers.

In general, LD50 refers to the dose at which mortality reaches 50%. Higher therefore signals a less toxic substance. `CC(=O)N1CCCC(=O)c2c(Cl)cccc2CCC1=O` [I Cl H H H COCH3, 4-acetyl-9-chloro-1,2,4,5,6,7-hexahydro-4-benzazecine-3,8-dione] had an LD50 in series [1] of over 5000 mg/kg.

As for `CN1[C@@H]2C[C@@H](OC(=O)[C@H](CO)c3ccccc3)C[C@H]1[C@@H]1O[C@@H]12` [scopolamine], in series [2], the “animals with retrograde effect on the short-time memory” value was 85-92% and the “duration of retrograde effect on the short-time memory” value fell in the range of 3 to 4 h.

As for `CC(=O)N1CCCC(=O)c2c(Cl)cc(Cl)cc2CCC1=O` [I Cl H Cl H COCH3, 4-acetyl-9,11-dichloro-1,2,4,5,6,7-hexahydro-4-benzazecine-3,8-dione], the LD50 in series [1] was over 5000 mg/kg.

In series [1], `CC(=O)N1CCCC(=O)c2ccc(Cl)cc2CCC1=O` [I H H Cl H COCH3, 4-acetyl-11-chloro-1,2,4,5,6,7-hexahydro-4-benzazecine-3,8-dione] showed an LD50 of over 5000 mg/kg.

`CC(=O)N1CCCC2=C1CCc1cc(Cl)ccc12` [II H H Cl H COCH3, 4-acetyl-8-chloro-1,2,3,4,5,6-hexahydrobenzo[f]quinoline] yielded an LD50 in series [1] of 2500 to 5000 mg/kg.

As for `CC(=O)N1CCCC(=O)c2ccc(F)cc2CCC1=O` [I H H F H COCH3, 4-acetyl-11-fluoro-1,2,4,5,6,7-hexahydro-4-benzazecine-3,8-dione], the LD50 in series [1] was over 5000 mg/kg.
